Assay results published in patent US12662530B2, “Anti-ADM-antibodies binding to the free N-terminus for accelerated transition of ADM-Gly to bio-ADM in patients with ADM-Gly/ bio-ADM ratio above a threshold and combination with vitamin C” (SphingoTec GmbH, priority 2020, dated 2026).

Columns and labels:
native PAM = assay: ADM maturation activity (AMA) of native PAM in Li-Heparin plasma with antibody and varying L-ascorbate; format: biochemical, human
Method: A serial antibody-dilution with concentrations of 0, 5, 10, 50, 100, 500 and 3000 μg/mL per well, respectively (in 20 μl) were pipetted into 96-well micro-titer plates. Then 160 μl PAM reaction buffer (100 mM Tris-HCl, 6.25 μM CuSO4, 62.5 μM amastatin, 250 μM leupeptin, 36 ng/mL ADM-Gly) with varying L-ascorbate concentrations was added to the wells and incubated for 15 min. Afterwards the reaction was started by addition of 20 μl of Li-Heparin plasma, containing native PAM Immediately after addition of plasma, 100 μl from each well were removed and inactivated by addition of EDTA (20 mM final concentration) to generate a t=0 minutes reaction point. Inactivated and non-inactivated samples were incubated for 40 minutes at 37° C. and the reaction in non-inactivated samples was stopped as described above. For quantification of produced ADM-NH2 the Sphingotest® bio-ADM Kit (Weber et al. 2017) was utilized according to manufacturer's manual. The ADM maturation activity (AMA) was calculated according to equation 1 (DF=dilution factor of sample matrix).

septic patients = conditions: intravenous; placebo group 46%; cited from earlier work

O=C1O[C@H]([C@@H](O)CO)C(O)=C1O [ascorbate, L-ascorbic acid, reference compound]
effect on ADM maturation activities (native PAM; ascorbate in the range of 0.4-2 mM, FIG. 15): led to increasing ADM maturation activities
activity optimum of the amidating reaction (ascorbate concentration) (native PAM; with and without HAM8101): 0.8 to 2 mM
mortality at day 28 (septic patients): ~30%
